Results reported in PubChem BioAssay (NCI).
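How tested: cells in 96-well plates exposed to compound for 48 hours at five concentrations. TGI: total growth inhibition.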

What was measured:
Assay in all cases: inhibition of tumour cell growth, NCI panel, 48 h
SNB-75 CNS = tested on: SNB-75 CNS
UO-31 renal = tested on: UO-31 renal
OVCAR-3 ovarian = tested on: OVCAR-3 ovarian
NCI-H226 lung = tested on: NCI-H226 lung
MOLT-4 leukemia = tested on: MOLT-4 leukemia
NCI-H23 lung = tested on: NCI-H23 lung
MDA-MB-231 breast = tested on: MDA-MB-231 breast
SK-MEL-5 melanoma = tested on: SK-MEL-5 melanoma
UACC-62 melanoma = tested on: UACC-62 melanoma
TK-10 renal = tested on: TK-10 renal
IGROV1 ovarian = tested on: IGROV1 ovarian
COLO 205 colon = tested on: COLO 205 colon
NCI-H460 lung = tested on: NCI-H460 lung
SK-MEL-2 melanoma = tested on: SK-MEL-2 melanoma
UACC-257 melanoma = tested on: UACC-257 melanoma
SK-OV-3 ovarian = tested on: SK-OV-3 ovarian
LOX IMVI melanoma = tested on: LOX IMVI melanoma
K-562 leukemia = tested on: K-562 leukemia
HT29 colon = tested on: HT29 colon
SW-620 colon = tested on: SW-620 colon
RXF 393 renal = tested on: RXF 393 renal
A498 renal = tested on: A498 renal
OVCAR-5 ovarian = tested on: OVCAR-5 ovarian
EKVX NSCLC = tested on: EKVX NSCLC
SK-MEL-28 melanoma = tested on: SK-MEL-28 melanoma
OVCAR-4 ovarian = tested on: OVCAR-4 ovarian
HCT-116 colon = tested on: HCT-116 colon
ACHN renal = tested on: ACHN renal
SN12C renal = tested on: SN12C renal
MDA-N = tested on: MDA-N
SF-539 CNS = tested on: SF-539 CNS
MDA-MB-435 = tested on: MDA-MB-435
BT-549 breast = tested on: BT-549 breast
NCI/ADR-RES ovarian = tested on: NCI/ADR-RES ovarian
A549 NSCLC = tested on: A549 NSCLC
OVCAR-8 ovarian = tested on: OVCAR-8 ovarian
SF-268 CNS = tested on: SF-268 CNS
HS 578T breast = tested on: HS 578T breast
DU-145 prostate = tested on: DU-145 prostate
CAKI-1 renal = tested on: CAKI-1 renal
CCRF-CEM leukemia = tested on: CCRF-CEM leukemia
PC-3 prostate = tested on: PC-3 prostate
SR leukemia = tested on: SR leukemia
HCT-15 colon = tested on: HCT-15 colon
MCF7 breast = tested on: MCF7 breast
HOP-92 NSCLC = tested on: HOP-92 NSCLC
HL-60(TB) leukemia = tested on: HL-60(TB) leukemia
HCC-2998 colon = tested on: HCC-2998 colon
HOP-62 NSCLC = tested on: HOP-62 NSCLC
U251 CNS = tested on: U251 CNS
NCI-H522 lung = tested on: NCI-H522 lung
SNB-19 CNS = tested on: SNB-19 CNS
786-0 renal = tested on: 786-0 renal
SF-295 CNS = tested on: SF-295 CNS
M14 melanoma = tested on: M14 melanoma
KM12 colon = tested on: KM12 colon
RPMI-8226 leukemia = tested on: RPMI-8226 leukemia
MALME-3M melanoma = tested on: MALME-3M melanoma

## O=C(/C=C\c1ccc(-c2ccccc2)cc1)c1cccs1
SNB-75 CNS
  TGI: > 60.4 µM
UO-31 renal
  TGI: > 100 µM
OVCAR-3 ovarian
  TGI: > 100 µM
NCI-H226 lung
  TGI: > 100 µM
MOLT-4 leukemia
  TGI: > 28.1 µM
NCI-H23 lung
  TGI: > 100 µM
MDA-MB-231 breast
  TGI: > 100 µM
SK-MEL-5 melanoma
  TGI: > 100 µM
UACC-62 melanoma
  TGI: > 100 µM
TK-10 renal
  TGI: > 100 µM
IGROV1 ovarian
  TGI: > 94.3 µM
COLO 205 colon
  TGI: > 100 µM
NCI-H460 lung
  TGI: > 100 µM
SK-MEL-2 melanoma
  TGI: > 100 µM
UACC-257 melanoma
  TGI: > 100 µM
SK-OV-3 ovarian
  TGI: > 100 µM
LOX IMVI melanoma
  TGI: > 100 µM
K-562 leukemia
  TGI: > 100 µM
HT29 colon
  TGI: > 50.3 µM
SW-620 colon
  TGI: > 100 µM
RXF 393 renal
  TGI: 46.4 µM
A498 renal
  TGI: > 27.1 µM
OVCAR-5 ovarian
  TGI: > 100 µM
EKVX NSCLC
  TGI: > 100 µM
SK-MEL-28 melanoma
  TGI: > 100 µM
OVCAR-4 ovarian
  TGI: > 100 µM
HCT-116 colon
  TGI: > 100 µM
ACHN renal
  TGI: > 100 µM
SN12C renal
  TGI: > 100 µM
MDA-N
  TGI: > 100 µM
SF-539 CNS
  TGI: > 100 µM
MDA-MB-435
  TGI: > 100 µM
BT-549 breast
  TGI: > 100 µM
NCI/ADR-RES ovarian
  TGI: > 100 µM
A549 NSCLC
  TGI: > 100 µM
OVCAR-8 ovarian
  TGI: > 100 µM
SF-268 CNS
  TGI: > 75 µM
HS 578T breast
  TGI: > 81 µM
DU-145 prostate
  TGI: > 100 µM
CAKI-1 renal
  TGI: > 100 µM
CCRF-CEM leukemia
  TGI: 12.5 µM
PC-3 prostate
  TGI: > 100 µM
SR leukemia
  TGI: > 100 µM
HCT-15 colon
  TGI: > 100 µM
MCF7 breast
  TGI: > 100 µM
HOP-92 NSCLC
  TGI: > 100 µM
HL-60(TB) leukemia
  TGI: > 31 µM
HCC-2998 colon
  TGI: > 100 µM
HOP-62 NSCLC
  TGI: > 100 µM
U251 CNS
  TGI: > 100 µM
NCI-H522 lung
  TGI: > 30.4 µM
SNB-19 CNS
  TGI: > 100 µM
786-0 renal
  TGI: > 100 µM
SF-295 CNS
  TGI: > 100 µM
M14 melanoma
  TGI: > 100 µM
KM12 colon
  TGI: > 100 µM
RPMI-8226 leukemia
  TGI: > 100 µM

## C=C(C)C[C@H](Sc1nc2ccccc2s1)[C@H](C)O
UO-31 renal
  TGI: > 100 µM
OVCAR-3 ovarian
  TGI: 75.7 µM
NCI-H226 lung
  TGI: 74.1 µM
MOLT-4 leukemia
  TGI: 43 µM
NCI-H23 lung
  TGI: > 100 µM
MDA-MB-231 breast
  TGI: > 100 µM
SK-MEL-5 melanoma
  TGI: 36.8 µM
UACC-62 melanoma
  TGI: > 100 µM
TK-10 renal
  TGI: > 100 µM
IGROV1 ovarian
  TGI: > 100 µM
COLO 205 colon
  TGI: > 100 µM
NCI-H460 lung
  TGI: > 100 µM
SK-MEL-2 melanoma
  TGI: 69.9 µM
UACC-257 melanoma
  TGI: > 100 µM
LOX IMVI melanoma
  TGI: > 100 µM
K-562 leukemia
  TGI: > 100 µM
HT29 colon
  TGI: > 100 µM
SW-620 colon
  TGI: > 100 µM
RXF 393 renal
  TGI: > 100 µM
A498 renal
  TGI: 79 µM
OVCAR-5 ovarian
  TGI: > 100 µM
EKVX NSCLC
  TGI: > 100 µM
SK-MEL-28 melanoma
  TGI: > 100 µM
OVCAR-4 ovarian
  TGI: > 100 µM
HCT-116 colon
  TGI: > 100 µM
ACHN renal
  TGI: > 100 µM
SN12C renal
  TGI: > 100 µM
MDA-N
  TGI: > 100 µM
SF-539 CNS
  TGI: > 100 µM
MALME-3M melanoma
  TGI: 72 µM
MDA-MB-435
  TGI: > 100 µM
BT-549 breast
  TGI: > 100 µM
NCI/ADR-RES ovarian
  TGI: > 100 µM
A549 NSCLC
  TGI: > 100 µM
OVCAR-8 ovarian
  TGI: > 100 µM
SF-268 CNS
  TGI: > 100 µM
HS 578T breast
  TGI: > 100 µM
DU-145 prostate
  TGI: > 100 µM
CAKI-1 renal
  TGI: > 100 µM
PC-3 prostate
  TGI: 63.8 µM
SR leukemia
  TGI: > 100 µM
HCT-15 colon
  TGI: > 100 µM
MCF7 breast
  TGI: > 100 µM
HOP-92 NSCLC
  TGI: > 100 µM
HL-60(TB) leukemia
  TGI: 44.9 µM
HCC-2998 colon
  TGI: > 100 µM
HOP-62 NSCLC
  TGI: > 100 µM
U251 CNS
  TGI: > 100 µM
NCI-H522 lung
  TGI: 81.9 µM
SNB-19 CNS
  TGI: > 100 µM
786-0 renal
  TGI: > 100 µM
SF-295 CNS
  TGI: > 100 µM
M14 melanoma
  TGI: > 100 µM
KM12 colon
  TGI: > 100 µM
RPMI-8226 leukemia
  TGI: 98.4 µM

## COc1cccc(NC(=O)CC(=O)Nc2cccc(OC)c2)c1
UO-31 renal
  TGI: > 100 µM
OVCAR-3 ovarian
  TGI: > 100 µM
NCI-H226 lung
  TGI: > 100 µM
MOLT-4 leukemia
  TGI: > 100 µM
NCI-H23 lung
  TGI: > 100 µM
MDA-MB-231 breast
  TGI: > 100 µM
SK-MEL-5 melanoma
  TGI: > 100 µM
UACC-62 melanoma
  TGI: > 100 µM
TK-10 renal
  TGI: > 100 µM
IGROV1 ovarian
  TGI: > 100 µM
COLO 205 colon
  TGI: > 100 µM
NCI-H460 lung
  TGI: > 100 µM
SK-MEL-2 melanoma
  TGI: > 100 µM
UACC-257 melanoma
  TGI: > 100 µM
SK-OV-3 ovarian
  TGI: > 100 µM
LOX IMVI melanoma
  TGI: > 100 µM
K-562 leukemia
  TGI: > 100 µM
HT29 colon
  TGI: > 100 µM
SW-620 colon
  TGI: > 100 µM
A498 renal
  TGI: > 100 µM
EKVX NSCLC
  TGI: > 100 µM
SK-MEL-28 melanoma
  TGI: > 100 µM
OVCAR-4 ovarian
  TGI: > 100 µM
HCT-116 colon
  TGI: > 100 µM
ACHN renal
  TGI: > 100 µM
SN12C renal
  TGI: > 100 µM
MDA-N
  TGI: > 100 µM
SF-539 CNS
  TGI: > 100 µM
MALME-3M melanoma
  TGI: > 100 µM
MDA-MB-435
  TGI: > 100 µM
BT-549 breast
  TGI: > 100 µM
NCI/ADR-RES ovarian
  TGI: > 100 µM
A549 NSCLC
  TGI: > 100 µM
OVCAR-8 ovarian
  TGI: > 100 µM
SF-268 CNS
  TGI: > 100 µM
HS 578T breast
  TGI: > 100 µM
DU-145 prostate
  TGI: > 100 µM
CAKI-1 renal
  TGI: > 100 µM
CCRF-CEM leukemia
  TGI: > 100 µM
PC-3 prostate
  TGI: > 100 µM
SR leukemia
  TGI: > 100 µM
HCT-15 colon
  TGI: > 100 µM
MCF7 breast
  TGI: > 100 µM
HOP-92 NSCLC
  TGI: > 100 µM
HL-60(TB) leukemia
  TGI: > 100 µM
HCC-2998 colon
  TGI: > 100 µM
HOP-62 NSCLC
  TGI: > 100 µM
U251 CNS
  TGI: > 100 µM
NCI-H522 lung
  TGI: > 100 µM
SNB-19 CNS
  TGI: > 100 µM
786-0 renal
  TGI: > 100 µM
SF-295 CNS
  TGI: > 100 µM
M14 melanoma
  TGI: > 100 µM
KM12 colon
  TGI: > 100 µM
RPMI-8226 leukemia
  TGI: > 100 µM
